# What was measured:
# [1] = target: T1, HCV NS5B RdRp genotype 1b (Hepatitis C virus genotype 1b, UniProt Q9WMX2); test: Modified HCV NS5B RdRp enzyme assay (with preincubation); assay type: biochemical
# T1 construct: The protein was expressed with an 18 amino acid C-terminal truncation to enhance the solubility; made in house; host or cells: E. coli BL21 (DE3), pET21a
# Procedure: HCVNS5B RdRp cloning, expression, and purification. The cDNA encoding the NS5B protein of HCV, genotype 1b, was cloned into the pET21a expression vector. The protein was expressed with an 18 amino acid C-terminal truncation to enhance the solubility. The E. coli competent cell line BL21 (DE3) was used for expression of the protein. Cultures were grown at 37° C. for ˜4 hours until the cultures reached an optical density of 2.0 at 600 nm. The cultures were cooled to 20° C. and induced with 1 mM IPTG. Fresh ampicillin was added to a final concentration of 50 μg/ml and the cells were grown overnight at 20° C.
# Cell pellets (3 L) were lysed for purification to yield 15-24 mgs of purified NS5B. The lysis buffer consisted of 20 mM Tris-HCl, pH 7.4, 500 mM NaCl, 0.5% triton X-100, 1 mM DTT, 1 mM EDTA, 20% glycerol, 0.5 mg/ml lysozyme, 10 mM MgCl2, 15 ug/ml deoxyribonuclease I, and Complete TM protease inhibitor tablets (Roche). After addition of the lysis buffer, frozen cell pellets were resuspended using a tissue homogenizer. To reduce the viscosity of the sample, aliquots of the lysate were sonicated on ice using a microtip attached to a Branson sonicator. The sonicated lysate was centrifuged at 100,000×g for 1 hr at 4° C. and filtered through a 0.2 μm filter unit (Corning).
# The protein was purified using three sequential chromatography steps: Heparin sepharose CL-6B, polyU sepharose 4B, and Hitrap SP sepharose (Pharmacia). The chromatography buffers were identical to the lysis buffer but contained no lysozyme, deoxyribonuclease I, MgCl2 or protease inhibitor and the NaCl concentration of the buffer was adjusted according to the requirements for charging the protein onto the column. Each column was eluted with a NaCl gradient which varied in length from 5-50 column volumes depending on the column type. After the final chromatography step, the resulting purity of the enzyme is >90% based on SDS-PAGE analysis. The enzyme was aliquoted and stored at −80° C.
# Standard HCV NS5B RdRp enzyme assay. HCV RdRp genotype Ib assays were run in a final volume of 60 μl in 96 well plates (Costar 3912). The assay buffer is composed of 20 mM Hepes, pH 7.5, 2.5 mM KCl, 2.5 mM MgCl2, 1 mM DTT, 1.6 U RNAse inhibitor (Promega N2515), 0.1 mg/ml BSA (Promega R3961), and 2% glycerol. All compounds were serially diluted (3-fold) in DMSO and diluted further in water such that the final concentration of DMSO in the assay was 2%. HCV RdRp genotype 1b enzyme was used at a final concentration of 28 nM. A polyA template was used at 6 nM, and a biotinylated oligo-dT12 primer was used at 180 nM final concentration. Template was obtained commercially (Amersham 27-4110). Biotinylated primer was prepared by Sigma Genosys. ^3H-UTP was used at 0.6 μCi (0.29 μM total UTP). Reactions were initiated by the addition of enzyme, incubated at 30° C. for 60 min, and stopped by adding 25 μl of 50 mM EDTA containing SPA beads (4 μg/μl, Amersham RPNQ 0007). Plates were read on a Packard Top Count NXT after >1 hr incubation at room temperature.
# Modified HCV NS5B RdRp enzyme assay. A modified enzyme assay was performed essentially as described for the standard enzyme assay except for the following: The biotinylated oligo dT12 primer was precaptured on streptavidin-coated SPA beads by mixing primer and beads in assay buffer and incubating at room temperature for one hour. Unbound primer was removed after centrifugation. The primer-bound beads were resuspended in 20 mM Hepes buffer, pH 7.5 and used in the assay at final concentrations of 20 nM primer and 0.67 μg/μl beads. Order of addition in the assay: enzyme (14 nM) was added to diluted compound followed by the addition of a mixture of template (0.2 nM), ^3H-UTP (0.6 μCi, 0.29 μM), and primer-bound beads, to initiate the reaction; concentrations given are final. Reactions were allowed to proceed for 4 hours at 30° C.
# The IC50 values for compounds were determined using seven different [I]. […]
# [2] = tested on: HCV replicon; test: HCV replicon FRET assay; assay type: cell-based; conditions: Hepatitis C virus; FRET assay; read-out: EC50
# Procedure: The IC50 values for compounds were determined using seven different [I]. IC50 values were calculated from the inhibition using the formula y=A+((B−A)/(1+((C/x)^D))). FRET Assay Preparation. To perform the HCV FRET screening assay, 96-well cell culture plates were used. The FRET peptide (Anaspec, Inc.) (Taliani et al., Anal. Biochem. 240:60-67 (1996), hereby incorporated by reference in its entirety) contains a fluorescence donor, EDANS, near one end of the peptide and an acceptor, DABCYL, near the other end. The fluorescence of the peptide is quenched by […] resonance energy transfer (RET) between the donor and the acceptor, but as the NS3 protease cleaves the peptide the products are released from RET quenching and the fluorescence of the donor becomes apparent. The assay reagent was made as follows: 5× cell Luciferase cell culture lysis reagent from Promega (#E153A) diluted to 1× with dH2O, NaCl added to 150 mM final, the FRET peptide diluted to 20 uM final from a 2 mM stock.
# To prepare plates, HCV replicon cells, with or without a Renilla luciferase reporter gene, were trypsinized and placed into each well of a 96-well plate with titrated test compounds added in columns 3 through 12; columns 1 and 2 contained a control compound (HCV protease inhibitor), and the bottom row contained cells without compound. The plates were then placed in a CO2 incubator at 37 degrees C.
# Assays. Subsequent to addition of the test compounds described above (FRET Assay Preparation), at various times the plate was removed and Alamar blue solution (Trek Diagnostics, #00-100) was added per well as a measure of cellular toxicity. After reading in a Cytoflour 4000 instrument (PE Biosystems), plates were rinsed with PBS and then used for FRET assay by the addition of 30 ul of the FRET peptide assay reagent described above (FRET Assay Preparation) per well. The plate was then placed into the Cytoflour 4000 instrument which had been set to 340 excite/490 emission, automatic mode for 20 cycles and the plate read in a kinetic mode. Typically, the signal to noise using an endpoint analysis after the reads was at least three-fold. Alternatively, after Alamar blue reading, plates were rinsed with PBS, 50 ul of DMEM (high glucose) without phenol red was added and plates were then used for luciferase assay using the Promega Dual-Glo Luciferase Assay System.
# Compound analysis was determined by quantification of the relative HCV replicon inhibition and the relative cytotoxicity values. To calculate cytoxicity values, the average Alamar Blue fluorescence signals from the control wells were set as 100% non-toxic. The individual signals in each of the compound test wells were then divided by the average control signal and multiplied by 100% to determine […]. To calculate the HCV replicon inhibition values, an average background value was obtained from the two wells containing the highest amount of HCV protease inhibitor at the end of the assay period. These numbers were similar to those obtained from naïve Huh-7 cells.
# The background numbers were then subtracted from the average signal obtained from the control wells and this number was used as 100% activity. The individual signals in each of the compound test wells were then divided by the averaged control values after background subtraction and multiplied by 100% to determine percent activity. EC50 values for a protease inhibitor titration were calculated as the concentration which caused a 50% reduction in FRET or luciferase activity. The two numbers generated for the compound plate, percent cytoxicity and percent activity were used to determine compounds of interest for further analysis.
# [3] = modified method (with preincubation)
# T1 sequence (Q9WMX2 2420-2992): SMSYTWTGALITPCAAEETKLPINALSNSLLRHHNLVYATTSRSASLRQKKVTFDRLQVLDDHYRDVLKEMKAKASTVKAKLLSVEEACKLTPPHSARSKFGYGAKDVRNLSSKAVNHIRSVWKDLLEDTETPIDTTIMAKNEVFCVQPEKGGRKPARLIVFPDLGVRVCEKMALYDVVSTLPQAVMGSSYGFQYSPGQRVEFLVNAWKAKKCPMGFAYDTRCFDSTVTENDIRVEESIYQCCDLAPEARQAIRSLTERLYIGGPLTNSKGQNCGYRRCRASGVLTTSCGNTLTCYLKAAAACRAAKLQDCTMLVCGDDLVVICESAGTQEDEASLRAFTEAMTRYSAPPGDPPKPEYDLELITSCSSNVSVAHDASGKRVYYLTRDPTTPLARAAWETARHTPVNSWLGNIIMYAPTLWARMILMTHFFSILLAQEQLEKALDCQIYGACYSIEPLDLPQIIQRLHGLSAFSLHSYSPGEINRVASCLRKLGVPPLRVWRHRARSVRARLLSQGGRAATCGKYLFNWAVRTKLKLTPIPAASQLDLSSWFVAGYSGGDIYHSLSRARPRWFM
SMILES,"IC50 [1, 3] [nM]",EC50 [2] [nM],IC50 ([1]; preincubation protocol) [nM]
COC(=O)/C=C/c1ccc(NC(=O)C2(NC(=O)c3ccc4c(C5CCCCC5)c5n(c4c3)CC(=O)Cc3ccccc3-5)CCCC2)cc1,> 1000,10 to 1000,–
COC(=O)c1ccc2c(C3CCCCC3)c3n(c2c1)C(O)c1cc(OCc2ccccc2)ccc1-3 (centres unmarked),–,> 100,1000 to 10000
N#Cc1ccc2c(C3CCCCC3)c3n(c2c1)CCCc1ncccc1-3,> 1000,10 to 1000,–
O=C(O)c1ccc2c(C3CCCCC3)c3n(c2c1)CC(C(=O)N1CCOCC1)Cc1cccnc1-3 (centres unmarked),20 to 1000,1000 to 10000,–
COc1ccc2c(c1)C=C(C(=O)N1CCOCC1)Cn1c-2c(C2CCCCC2)c2ccc(C(=O)O)cc21,20 to 1000,10 to 1000,–
C[C@@H]1CN(C(=O)C2=Cc3cc(F)ccc3-c3c(C4CCCCC4)c4ccc(C(=O)O)cc4n3C2)C[C@H](C)O1,–,50 to 1000,10 to 1000
CS(=O)(=O)NC(=O)c1ccc2c(C3CCCCC3)c3n(c2c1)CC(C(=O)N1CCOCC1)=Cc1ccccc1-3,20 to 1000,10 to 1000,–
COC(=O)/C=C/c1ccc(NC(=O)C2(NC(=O)c3ccc4c(C5CCCCC5)c5n(c4c3)CCCc3ncccc3-5)CCCC2)cc1,20 to 1000,10 to 1000,–
Cc1cc(CNC(=O)c2ccc3c(C4CCCCC4)c4n(c3c2)CC(C(=O)N2C[C@@H](C)O[C@@H](C)C2)=Cc2ccccc2-4)n[nH]1,–,50 to 1000,10 to 1000
O=C(NC1(C(=O)OCc2ccccc2)CCCC1)c1ccc2c(C3CCCCC3)c3n(c2c1)CCCc1cc(O)ccc1-3,> 1000,1000 to 10000,–
CN(C)CCNC(=O)C1=Cc2ccccc2-c2c(C3CCCCC3)c3ccc(C(=O)O)cc3n2C1,20 to 1000,10 to 1000,–
COc1cc(CNC(=O)c2ccc3c(C4CCCCC4)c4n(c3c2)CC(C(=O)N2CCOCC2)=Cc2ccccc2-4)ccc1O,20 to 1000,10 to 1000,–
COc1ccc2c(c1)C=C(C(=O)N1CCC[C@@H](O)C1)Cn1c-2c(C2CCCCC2)c2ccc(C(=O)NS(=O)(=O)N(C)C)cc21,–,50 to 1000,10 to 1000
C[C@@H]1CN(C(=O)C2=Cc3ccccc3-c3c(C4CCCCC4)c4ccc(C(=O)NC5(C(=O)Nc6nccs6)CCCC5)cc4n3C2)C[C@H](C)O1,–,50 to 1000,10 to 1000
O=C(O)c1ccc2c(C3CCCCC3)c3n(c2c1)CCCc1ocnc1-3,> 1000,> 10000,–
COc1ccc2c(c1)CC(F)(C(=O)O)Cn1c-2c(C2CCCCC2)c2ccc(C(=O)NS(=O)(=O)N(C)C)cc21 (centres unmarked),–,1000 to 10000,10 to 1000
C[C@@H]1CN(C(=O)C2=Cc3ccccc3-c3c(C4CCCCC4)c4ccc(C(=O)NC5(C(=O)Nc6ncc(-c7ccc(C(=O)O)cc7)s6)CCCC5)cc4n3C2)C[C@H](C)O1,–,50 to 1000,10 to 1000
O=C(NS(=O)(=O)C1CC1)c1ccc2c(C3CCCCC3)c3n(c2c1)CCNc1ccccc1-3,20 to 1000,10 to 1000,–
O=C(O)c1ccc2c(C3CCCCC3)c3n(c2c1)C[C@@H](O)[C@@H](O)c1ncccc1-3,20 to 1000,1000 to 10000,–
NC(=O)c1ccc2c(C3CCCCC3)c3n(c2c1)CCCc1ncccc1-3,20 to 1000,1000 to 10000,–
CN(C)CCNC(=O)C1=Cc2ccccc2-c2c(C3CCCCC3)c3ccc(C(=O)NC4(C(=O)Nc5ccc6c(c5)cc(C(=O)O)n6C)CCCC4)cc3n2C1,20 to 1000,10 to 1000,–
CCN(C)C(=O)C1=Cc2cc(OC)ccc2-c2c(C3CCCCC3)c3ccc(C(=O)NS(=O)(=O)N(C)C)cc3n2C1,–,50 to 1000,10 to 1000
O=C(O)/C=C/c1ccc(NC(=O)C2(NC(=O)c3ccc4c(C5CCCCC5)c5n(c4c3)CC(C(=O)N3CCC(N4CCCC4)CC3)Cc3ccccc3-5)CCCC2)cc1 (centres unmarked),20 to 1000,10 to 1000,–
Cn1cnc(S(=O)(=O)NC(=O)c2ccc3c(C4CCCCC4)c4n(c3c2)CCCc2ncccc2-4)c1,20 to 1000,1000 to 10000,–
O=C(O)/C=C/c1ccc(NC(=O)C2(NC(=O)c3ccc4c(C5CCCCC5)c5n(c4c3)CC(C(=O)N3CCCCC3)Cc3ccccc3-5)CCCC2)cc1 (centres unmarked),20 to 1000,10 to 1000,–
